Like-named read-outs stand apart in the source and are kept apart here. One block for each compound: values may come before it.
Assays:
[1] = biological target: Nav 1.5 (Homo sapiens (Human), UniProt Q14524); assay: in-vitro Nav 1.5 PX data; settings: read-out: Nav 1.5 PX IC50
[2] = biological target: Nav 1.7 (Homo sapiens (Human), UniProt Q15858); assay: in-vitro Nav 1.7 PX data; assay type: cell-based
Chain of Nav 1.7 (Q15858 whole entry): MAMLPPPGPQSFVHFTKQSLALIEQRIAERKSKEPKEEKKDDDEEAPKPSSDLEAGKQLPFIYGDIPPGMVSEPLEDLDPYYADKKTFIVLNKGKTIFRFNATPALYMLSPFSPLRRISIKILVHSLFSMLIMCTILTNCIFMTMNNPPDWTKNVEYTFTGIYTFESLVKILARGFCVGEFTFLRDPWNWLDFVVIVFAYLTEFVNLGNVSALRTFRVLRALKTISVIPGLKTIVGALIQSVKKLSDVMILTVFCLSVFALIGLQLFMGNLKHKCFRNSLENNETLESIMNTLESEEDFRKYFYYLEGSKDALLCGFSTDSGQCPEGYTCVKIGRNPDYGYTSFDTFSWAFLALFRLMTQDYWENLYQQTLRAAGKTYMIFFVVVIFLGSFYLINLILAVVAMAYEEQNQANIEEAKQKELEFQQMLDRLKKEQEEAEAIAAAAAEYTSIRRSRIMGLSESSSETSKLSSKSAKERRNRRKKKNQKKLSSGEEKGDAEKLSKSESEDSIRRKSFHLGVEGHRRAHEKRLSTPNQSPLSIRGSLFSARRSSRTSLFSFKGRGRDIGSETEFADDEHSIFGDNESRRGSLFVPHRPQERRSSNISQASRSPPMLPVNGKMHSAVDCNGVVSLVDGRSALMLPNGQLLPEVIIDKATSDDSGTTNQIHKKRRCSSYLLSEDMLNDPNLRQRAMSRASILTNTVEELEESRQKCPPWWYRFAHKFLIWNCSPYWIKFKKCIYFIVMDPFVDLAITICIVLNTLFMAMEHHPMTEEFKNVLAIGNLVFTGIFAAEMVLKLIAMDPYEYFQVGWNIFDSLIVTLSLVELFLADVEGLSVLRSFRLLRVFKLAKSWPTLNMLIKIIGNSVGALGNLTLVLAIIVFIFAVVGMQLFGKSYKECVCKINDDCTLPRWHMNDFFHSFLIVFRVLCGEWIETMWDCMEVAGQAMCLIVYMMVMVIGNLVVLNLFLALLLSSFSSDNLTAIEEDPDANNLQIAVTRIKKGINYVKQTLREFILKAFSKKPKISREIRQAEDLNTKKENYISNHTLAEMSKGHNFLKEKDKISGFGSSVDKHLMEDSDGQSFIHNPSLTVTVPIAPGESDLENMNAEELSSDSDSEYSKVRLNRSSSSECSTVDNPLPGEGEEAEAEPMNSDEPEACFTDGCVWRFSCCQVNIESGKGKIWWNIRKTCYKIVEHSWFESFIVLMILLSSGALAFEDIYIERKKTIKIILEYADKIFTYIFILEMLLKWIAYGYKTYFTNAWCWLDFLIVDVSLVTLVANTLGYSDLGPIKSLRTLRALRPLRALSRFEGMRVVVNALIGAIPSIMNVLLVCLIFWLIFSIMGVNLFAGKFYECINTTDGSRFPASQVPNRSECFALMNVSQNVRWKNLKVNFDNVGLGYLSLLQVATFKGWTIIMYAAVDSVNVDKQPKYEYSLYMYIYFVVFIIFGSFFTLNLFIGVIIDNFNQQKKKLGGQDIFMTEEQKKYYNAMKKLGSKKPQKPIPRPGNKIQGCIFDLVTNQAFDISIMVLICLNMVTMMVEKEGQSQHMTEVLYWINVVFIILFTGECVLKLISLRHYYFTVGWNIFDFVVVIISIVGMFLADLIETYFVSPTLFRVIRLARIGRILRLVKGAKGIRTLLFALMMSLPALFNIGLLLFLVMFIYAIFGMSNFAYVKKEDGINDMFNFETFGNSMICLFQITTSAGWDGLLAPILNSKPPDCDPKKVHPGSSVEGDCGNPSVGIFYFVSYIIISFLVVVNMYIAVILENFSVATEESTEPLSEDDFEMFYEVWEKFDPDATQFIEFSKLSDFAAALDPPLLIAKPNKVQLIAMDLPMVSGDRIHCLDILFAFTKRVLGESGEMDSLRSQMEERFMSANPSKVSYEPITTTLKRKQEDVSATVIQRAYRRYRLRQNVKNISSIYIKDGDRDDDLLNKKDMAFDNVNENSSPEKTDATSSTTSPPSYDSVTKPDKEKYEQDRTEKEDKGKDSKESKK

Chain of Nav 1.5 (Q14524 whole entry): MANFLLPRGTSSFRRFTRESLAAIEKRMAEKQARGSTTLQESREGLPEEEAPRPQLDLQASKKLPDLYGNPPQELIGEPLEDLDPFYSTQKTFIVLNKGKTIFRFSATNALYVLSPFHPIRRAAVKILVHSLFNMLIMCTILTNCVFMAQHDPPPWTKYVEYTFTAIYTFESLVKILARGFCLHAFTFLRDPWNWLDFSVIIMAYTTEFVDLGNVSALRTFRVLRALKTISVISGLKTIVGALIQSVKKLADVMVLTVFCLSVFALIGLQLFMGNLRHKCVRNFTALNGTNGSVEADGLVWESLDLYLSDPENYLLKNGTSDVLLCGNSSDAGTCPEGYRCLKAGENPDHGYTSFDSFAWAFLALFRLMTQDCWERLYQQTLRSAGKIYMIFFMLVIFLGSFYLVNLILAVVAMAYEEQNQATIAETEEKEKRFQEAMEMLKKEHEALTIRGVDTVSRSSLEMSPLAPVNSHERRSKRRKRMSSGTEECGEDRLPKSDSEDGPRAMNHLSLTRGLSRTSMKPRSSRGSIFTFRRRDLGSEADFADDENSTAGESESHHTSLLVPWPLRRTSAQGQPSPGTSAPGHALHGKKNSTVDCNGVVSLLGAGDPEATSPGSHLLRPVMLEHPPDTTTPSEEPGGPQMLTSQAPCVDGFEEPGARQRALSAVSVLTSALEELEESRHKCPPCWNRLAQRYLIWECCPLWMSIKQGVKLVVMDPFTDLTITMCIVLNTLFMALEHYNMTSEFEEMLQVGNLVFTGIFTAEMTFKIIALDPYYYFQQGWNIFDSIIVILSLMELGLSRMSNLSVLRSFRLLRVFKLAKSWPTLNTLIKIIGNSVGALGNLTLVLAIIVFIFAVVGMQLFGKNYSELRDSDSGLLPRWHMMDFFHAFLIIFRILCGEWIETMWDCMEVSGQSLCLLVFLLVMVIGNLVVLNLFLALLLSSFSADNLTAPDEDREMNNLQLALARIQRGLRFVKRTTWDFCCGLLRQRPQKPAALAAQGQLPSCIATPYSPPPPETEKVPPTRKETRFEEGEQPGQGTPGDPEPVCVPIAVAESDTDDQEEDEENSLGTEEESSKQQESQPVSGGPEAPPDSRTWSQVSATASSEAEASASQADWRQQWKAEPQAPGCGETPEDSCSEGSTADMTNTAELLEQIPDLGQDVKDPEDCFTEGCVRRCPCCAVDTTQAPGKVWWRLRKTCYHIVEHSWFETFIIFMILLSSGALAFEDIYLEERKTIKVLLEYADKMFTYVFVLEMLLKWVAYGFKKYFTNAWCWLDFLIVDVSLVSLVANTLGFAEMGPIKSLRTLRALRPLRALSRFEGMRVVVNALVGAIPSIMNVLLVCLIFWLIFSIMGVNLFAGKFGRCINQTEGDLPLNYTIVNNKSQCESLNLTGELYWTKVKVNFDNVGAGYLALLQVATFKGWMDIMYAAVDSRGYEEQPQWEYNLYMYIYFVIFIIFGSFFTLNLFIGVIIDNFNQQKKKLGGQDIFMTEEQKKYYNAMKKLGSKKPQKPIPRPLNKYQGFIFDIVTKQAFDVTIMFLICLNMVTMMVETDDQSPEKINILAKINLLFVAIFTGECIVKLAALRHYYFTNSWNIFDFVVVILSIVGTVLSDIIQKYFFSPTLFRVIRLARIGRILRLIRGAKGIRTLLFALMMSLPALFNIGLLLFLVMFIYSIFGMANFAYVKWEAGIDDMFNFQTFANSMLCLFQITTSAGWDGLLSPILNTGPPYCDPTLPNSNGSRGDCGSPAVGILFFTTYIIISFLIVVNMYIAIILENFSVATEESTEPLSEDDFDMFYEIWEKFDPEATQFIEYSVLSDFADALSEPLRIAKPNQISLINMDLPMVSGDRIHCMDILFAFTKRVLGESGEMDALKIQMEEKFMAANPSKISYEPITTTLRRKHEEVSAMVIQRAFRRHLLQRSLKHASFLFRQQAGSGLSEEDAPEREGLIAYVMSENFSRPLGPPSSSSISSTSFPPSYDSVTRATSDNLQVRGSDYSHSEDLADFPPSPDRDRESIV

SMILES: COc1cc(-c2cccc(F)c2)c(Cl)cc1-c1ncnc2cc(S(=O)(=O)Nc3ncon3)ccc12 [Example 26, 4-(2-CHLORO-3′-FLUORO-5-METHOXY-[1,1′-BIPHENYL]-4-YL)-N-(1,2,4-OXADIAZOL-3-YL)QUINAZOLINE-7-SULFONAMIDE]
IC50 ([1]; in-vitro PX): > 10000 nM | IC50 ([2]; in-vitro PX): 85 nM

SMILES: COc1cc(-c2cccc(Cl)c2)c(C#N)cc1-c1nccc2cc(S(=O)(=O)Nc3ccon3)ccc12 [Example 111, 1-(3′-chloro-2-cyano-5-methoxy-4-biphenylyl)-N-3-isoxazolyl-6-isoquinolinesulfonamide]
IC50 ([1]; in-vitro PX data): > 10000 nM | IC50 ([2]; in-vitro PX data): 21.8 nM

SMILES: COc1cc(-c2cc(C)cc(F)c2)c(C#N)cc1-c1nccc2cc(S(=O)(=O)Nc3ccon3)ccc12 [Example 77, 1-(2-cyano-3′-fluoro-5-methoxy-5′-methyl-4-biphenylyl)-N-3-isoxazolyl-6-isoquinolinesulfonamide]
IC50 ([1]; PatchXpress (PX), in vitro): > 10000 nM | IC50 ([2]; PatchXpress (PX), in vitro): 72.5 nM

SMILES: COc1cc(-c2cccc(F)c2)c(Cl)cc1-c1nncc2cc(S(=O)(=O)Nc3ncccn3)ccc12 [Example 113, 1-(2-chloro-3′-fluoro-5-methoxy-4-biphenylyl)-N-2-pyrimidinyl-6-phthalazinesulfonamide]
IC50 ([1]; in-vitro PX data): > 10000 nM | IC50 ([2]; in-vitro PX data): 95 nM

SMILES: COc1cc(-c2cccc(F)c2)c(Cl)cc1-c1ncc(O)c2cc(S(=O)(=O)Nc3ccon3)ccc12 [Example 17, 1-(2-CHLORO-3′-FLUORO-5-METHOXY-[1,1′-BIPHENYL]-4-YL)-4-HYDROXY-N-(ISOXAZOL-3-YL)ISOQUINOLINE-6-SULFONAMIDE]
IC50 ([1]; in-vitro PX): > 10000 nM | IC50 ([2]; in-vitro PX): 85.1 nM

SMILES: COc1cc(-c2ccc(F)c(Cl)c2)c(C#N)cc1-c1nccc2cc(S(=O)(=O)Nc3ccon3)ccc12 [Example 84, 1-(3′-chloro-2-cyano-4′-fluoro-5-methoxy-4-biphenylyl)-N-3-isoxazolyl-6-isoquinolinesulfonamide]
IC50 ([1]; PatchXpress (PX), in vitro): > 10000 nM | IC50 ([2]; PatchXpress (PX), in vitro): 14.7 nM

SMILES: COc1cc(-c2ccc(Cl)c(C)c2)c(C#N)cc1-c1nccc2cc(S(=O)(=O)Nc3ccon3)ccc12 [Example 82, 1-(4′-chloro-2-cyano-5-methoxy-3′-methyl-4-biphenylyl)-N-3-isoxazolyl-6-isoquinolinesulfonamide]
IC50 ([1]; PatchXpress (PX), in vitro): > 10000 nM | IC50 ([2]; PatchXpress (PX), in vitro): 26.1 nM

SMILES: COc1cc(-c2cccc(F)c2)c(Cl)cc1-c1nncc2cc(S(=O)(=O)Nc3nncs3)ccc12 [Example 9, 1-(2-CHLORO-3′-FLUORO-5-METHOXY-[1,1′-BIPHENYL]-4-YL)-N-(1,3,4-THIADIAZOL-2-YL)PHTHALAZINE-6-SULFONAMIDE]
IC50 ([1]; in-vitro PX data): > 10000 nM | IC50 ([2]; in-vitro PX data): 112 nM

SMILES: COc1cc(-c2cc(F)cc(F)c2)c(C)cc1-c1nccc2cc(S(=O)(=O)Nc3nncs3)ccc12 [Example 172, 1-(3′,5′-difluoro-5-methoxy-2-methyl-4-biphenylyl)-N-1,3,4-thiadiazol-2-yl-]
IC50 ([1]; in-vitro Nav 1.5 PX data): > 10000 nM | IC50 ([2]; in-vitro Nav 1.7 PX data): 34.9 nM

SMILES: COc1cc(-c2cc(F)cc(F)c2)ccc1-c1nccc2cc(S(=O)(=O)Nc3ncccn3)ccc12 [Example 123, 1-(3′,5′-difluoro-3-methoxy-4-biphenylyl)-N-2-pyrimidinyl-6-isoquinolinesulfonamide]
IC50 ([1]; in-vitro PX data): > 10000 nM | IC50 ([2]; in-vitro PX data): 171 nM

SMILES: COc1cc(-c2cc(C)cc(Cl)c2)c(C#N)cc1-c1nccc2cc(S(=O)(=O)Nc3ccon3)ccc12 [Example 114, 1-(3′-chloro-2-cyano-5-methoxy-5′-methyl-4-biphenylyl)-N-3-isoxazolyl-6-isoquinolinesulfonamide]
IC50 ([1]; in-vitro PX data): > 10000 nM | IC50 ([2]; in-vitro PX data): 28.8 nM

SMILES: COc1cc(-c2cccc(F)c2)c(Cl)cc1-c1nccc2cc(S(=O)(=O)Nc3ccon3)c(F)cc12 [Example 43, 1-(2-CHLORO-3′-FLUORO-5-METHOXY-[1,1′-BIPHENYL]-4-YL)-7-FLUORO-N-(ISOXAZOL-3-YL)ISOQUINOLINE-6-SULFONAMIDE]
IC50 ([1]; PatchXpress (PX), in vitro): > 10000 nM | IC50 ([2]; PatchXpress (PX), in vitro): 45.6 nM

SMILES: Cc1ccc(Oc2ccccc2)cc1-c1nccc2cc(S(=O)(=O)Nc3ccncn3)ccc12 [Example 39, 1-(2-METHYL-5-PHENOXYPHENYL)-N-(PYRIMIDIN-4-YL)ISOQUINOLINE-6-SULFONAMIDE]
IC50 ([1]; in-vitro Nav 1.5 PX data): > 10000 nM | IC50 ([2]; in-vitro Nav 1.7 PX data): 488 nM

More lines, main results first:

IC50 ([2]; in-vitro PX (PatchXpress) data): 141 nM
SMILES: COc1cc(Oc2ccc(F)cc2)ccc1-c1nccc2cc(S(=O)(=O)Nc3nncs3)ccc12 [Example 174, 1-(4-(4-fluorophenoxy)-2-methoxyphenyl)-N-1,3,4-thiadiazol-2-yl-6-isoquinolinesulfonamide]
IC50 ([1]; in-vitro PX (PatchXpress) data): > 10000 nM

IC50 ([2]; in-vitro Nav 1.7 PX data): 206 nM
SMILES: COc1cc(-c2ccccc2C)c(C#N)cc1-c1nccc2cc(S(=O)(=O)Nc3ccncn3)ccc12 [Example 157, 1-(2-cyano-5-methoxy-2′-methyl-4-biphenylyl)-N-4-pyrimidinyl-6-isoquinolinesulfonamide]
IC50 ([1]; in-vitro Nav 1.5 PX data): > 10000 nM

IC50 ([2]; in-vitro Nav 1.7 PX data): 33.4 nM
SMILES: COc1cc(-c2ccc(F)c(F)c2)c(C)cc1-c1nccc2cc(S(=O)(=O)Nc3nncs3)ccc12 [Example 171, 1-(3′,4′-difluoro-5-methoxy-2-methyl-4-biphenylyl)-N-1,3,4-thiadiazol-2-yl-6-isoquinolinesulfonamide]
IC50 ([1]; in-vitro Nav 1.5 PX data): > 10000 nM

IC50 ([2]; in-vitro Nav 1.7 PX data): 43.5 nM
SMILES: COc1cc(-c2ccc(Cl)c(F)c2)c(C#N)cc1-c1nccc2cc(S(=O)(=O)Nc3ccncn3)ccc12 [Example 154, 1-(4′-chloro-2-cyano-3′-fluoro-5-methoxy-4-biphenylyl)-N-4-pyrimidinyl-6-isoquinolinesulfonamide]
IC50 ([1]; in-vitro Nav 1.5 PX data): > 30000 nM

IC50 ([2]; in-vitro PX (PatchXpress) data): 46 nM
SMILES: COc1cc(-c2cc(F)cc(F)c2)c(C#N)cc1-c1ncnc2cc(S(=O)(=O)Nc3ccon3)ccc12 [Example 202, 4-(2-cyano-3′,5′-difluoro-5-methoxy-4-biphenylyl)-N-3-isoxazolyl-7-quinazolinesulfonamide]
IC50 ([1]; in-vitro PX (PatchXpress) data): > 10000 nM

IC50 ([2]; in-vitro Nav 1.7 PX data): 17.4 nM
SMILES: COc1cc(-c2ccc(Cl)c(C)c2)c(C#N)cc1-c1nccc2cc(S(=O)(=O)Nc3ccncn3)ccc12 [Example 161, 1-(4′-chloro-2-cyano-5-methoxy-3′-methyl-4-biphenylyl)-N-4-pyrimidinyl-6-isoquinolinesulfonamide]
IC50 ([1]; in-vitro Nav 1.5 PX data): > 30000 nM

IC50 ([2]; in-vitro PX (PatchXpress) data): 133 nM
SMILES: COc1cc(Oc2ccc(C)c(F)c2)ccc1-c1nccc2cc(S(=O)(=O)Nc3nncs3)ccc12 [Example 194, 1-(4-(3-fluoro-4-methylphenoxy)-2-methoxyphenyl)-N-1,3,4-thiadiazol-2-yl-6-isoquinolinesulfonamide]
IC50 ([1]; in-vitro PX (PatchXpress) data): > 10000 nM

IC50 ([2]; in-vitro PX (PatchXpress) data): 126 nM
SMILES: COc1cc(Oc2cccc(C)c2)ccc1-c1nccc2cc(S(=O)(=O)Nc3ccncn3)ccc12 [Example 181, 1-(2-methoxy-4-(3-methylphenoxy)phenyl)-N-4-pyrimidinyl-6-isoquinolinesulfonamide]
IC50 ([1]; in-vitro PX (PatchXpress) data): > 10000 nM

IC50 ([2]; in-vitro PX (PatchXpress) data): 394 nM
SMILES: COc1cc(-c2ccc(-c3nccc4cc(S(=O)(=O)Nc5nncs5)ccc34)c(OC)c2)c(F)cn1 [Example 189, 1-(4-(5-fluoro-2-methoxy-4-pyridinyl)-2-methoxyphenyl)-N-1,3,4-thiadiazol-2-yl-6-isoquinolinesulfonamide]
IC50 ([1]; in-vitro PX (PatchXpress) data): > 30000 nM

IC50 ([2]; in-vitro PX (PatchXpress) data): 203 nM
SMILES: COc1cccc(Oc2ccc(-c3nccc4cc(S(=O)(=O)Nc5ccncn5)ccc34)c(OC)c2)c1 [Example 183, 1-(2-methoxy-4-(3-methoxyphenoxy)phenyl)-N-4-pyrimidinyl-6-isoquinolinesulfonamide]
IC50 ([1]; in-vitro PX (PatchXpress) data): > 10000 nM

IC50 ([2]; in-vitro PX): 22.3 nM
SMILES: COc1cc(-c2cccc(C)c2)c(C#N)cc1-c1nccc2cc(S(=O)(=O)Nc3nncs3)ccc12 [Example 217, 1-(2-cyano-5-methoxy-3′-methyl-4-biphenylyl)-N-1,3,4-thiadiazol-2-yl-6-isoquinolinesulfonamide]
IC50 ([1]; in-vitro PX): > 10000 nM

IC50 ([2]; in-vitro PX (PatchXpress) data): 28.8 nM
SMILES: COc1cc(-c2cccc(F)c2)c(C#N)cc1-c1ncnc2cc(S(=O)(=O)Nc3ccon3)ccc12 [Example 203, 4-(2-cyano-3′-fluoro-5-methoxy-4-biphenylyl)-N-3-isoxazolyl-7-quinazolinesulfonamide]
IC50 ([1]; in-vitro PX (PatchXpress) data): > 10000 nM

IC50 ([2]; in-vitro PX): 382 nM
SMILES: COc1nc(N2CC(F)(F)C2)c(Cl)cc1-c1nccc2cc(S(=O)(=O)Nc3nncs3)ccc12 [Example 236, 1-(5-chloro-6-(3,3-difluoro-1-azetidinyl)-2-methoxy-3-pyridinyl)-N-1,3,4-thiadiazol-2-yl-6-isoquinolinesulfonamide]
IC50 ([1]; in-vitro PX): > 30000 nM

IC50 ([2]; in-vitro PX (PatchXpress) data): 424 nM
SMILES: COc1cc(-c2cc(F)cnc2OC)c(C#N)cc1-c1ncnc2cc(S(=O)(=O)Nc3ccon3)ccc12 [Example 201, 4-(5-cyano-4-(5-fluoro-2-methoxy-3-pyridinyl)-2-methoxyphenyl)-N-3-isoxazolyl-7-quinazolinesulfonamide]
IC50 ([1]; in-vitro PX (PatchXpress) data): > 10000 nM

IC50 ([2]; in-vitro PX): 230 nM
SMILES: N#CCOc1cc(-c2cccc(F)c2)ccc1-c1nccc2cc(S(=O)(=O)Nc3ccncn3)ccc12 [Example 208, 1-(3-(cyanomethoxy)-3′-fluoro-4-biphenylyl)-N-4-pyrimidinyl-6-isoquinolinesulfonamide]
IC50 ([1]; in-vitro PX): > 30000 nM

IC50 ([2]; in-vitro PX data): 378 nM
SMILES: COc1cc(-c2cc(F)cc(F)c2)ccc1-c1nccc2cc(S(=O)(=O)Nc3ncc(F)cn3)ccc12 [Example 135, 1-(3′,5′-difluoro-3-methoxy-4-biphenylyl)-N-(5-fluoro-2-pyrimidinyl)-6-isoquinolinesulfonamide]
IC50 ([1]; in-vitro PX data): > 10000 nM

IC50 ([2]; in-vitro PX (PatchXpress) data): 36 nM
SMILES: COc1cc(-c2ccc(F)c(F)c2)c(C)cc1-c1ncnc2cc(S(=O)(=O)Nc3ccon3)ccc12 [Example 199, 4-(3′,4′-difluoro-5-methoxy-2-methyl-4-biphenylyl)-N-3-isoxazolyl-7-quinazolinesulfonamide]
IC50 ([1]; in-vitro PX (PatchXpress) data): > 10000 nM

Reference: patent US9776995B2, “Bicyclic sulfonamide compounds as sodium channel inhibitors” (AMGEN INC., priority 2013, dated 2017)
